Assay results as given in ChEMBL document CHEMBL4715851, “Research advances on selective phosphatidylinositol 3 kinase δ (PI3Kδ) inhibitors” (Bioorg Med Chem Lett, 2020).

Key:
[1] = Inhibition of C-terminal PI3Kdelta/p85 (unknown origin) expressed in baculovirus expression system using Phosphatidylinositol as substrate in presence of ATP by TR-FRET assay; parameters: species or system Homo sapiens
[2] = target: T1, Phosphatidylinositol 4,5-bisphosphate 3-kinase catalytic subunit delta isoform (Homo sapiens, UniProt O00329); assay: Inhibition of PI3K-delta (unknown origin)
T1 sequence (O00329 whole entry): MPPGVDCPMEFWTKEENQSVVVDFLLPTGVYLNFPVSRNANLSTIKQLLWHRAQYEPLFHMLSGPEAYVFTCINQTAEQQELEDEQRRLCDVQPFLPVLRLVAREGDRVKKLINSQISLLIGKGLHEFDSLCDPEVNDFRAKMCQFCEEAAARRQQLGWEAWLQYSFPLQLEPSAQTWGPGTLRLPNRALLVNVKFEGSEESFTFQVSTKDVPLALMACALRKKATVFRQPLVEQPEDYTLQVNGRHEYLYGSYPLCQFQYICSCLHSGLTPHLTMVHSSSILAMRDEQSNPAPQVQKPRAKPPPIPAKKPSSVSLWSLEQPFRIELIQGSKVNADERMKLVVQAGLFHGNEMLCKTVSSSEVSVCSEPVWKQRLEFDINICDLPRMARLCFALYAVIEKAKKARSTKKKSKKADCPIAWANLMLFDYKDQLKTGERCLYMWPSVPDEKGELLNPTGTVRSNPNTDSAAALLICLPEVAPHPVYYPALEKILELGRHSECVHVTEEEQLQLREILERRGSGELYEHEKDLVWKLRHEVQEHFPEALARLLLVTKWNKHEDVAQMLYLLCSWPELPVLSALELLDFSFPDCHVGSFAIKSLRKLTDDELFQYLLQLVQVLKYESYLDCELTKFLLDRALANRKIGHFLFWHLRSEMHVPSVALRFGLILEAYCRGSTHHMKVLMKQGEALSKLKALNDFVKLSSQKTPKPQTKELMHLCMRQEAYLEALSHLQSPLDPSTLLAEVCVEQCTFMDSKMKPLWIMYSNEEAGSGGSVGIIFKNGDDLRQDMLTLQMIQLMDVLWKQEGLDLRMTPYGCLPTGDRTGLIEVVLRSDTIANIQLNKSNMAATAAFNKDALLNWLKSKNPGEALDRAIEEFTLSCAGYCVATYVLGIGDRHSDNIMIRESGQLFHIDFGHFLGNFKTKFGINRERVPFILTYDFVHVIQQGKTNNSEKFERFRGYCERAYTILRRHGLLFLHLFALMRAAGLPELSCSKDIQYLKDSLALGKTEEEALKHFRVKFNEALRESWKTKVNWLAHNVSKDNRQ

IC50 [1] [nM] | IC50 [2] [nM] | Structure (SMILES)
< 100 |  | C[C@H](Nc1ncnc2scnc12)c1cc2cccc(-c3cnn(C)c3)c2c(=O)n1-c1ccccc1
 | 170 | C=Cc1ccc2oc3ccc(=O)n(-c4cccc(NC(=O)c5ccc(OC)nc5)c4)c3c2c1
